Experimental data published in ChEMBL document CHEMBL3044639, “Synthesis and biologic activities of some novel heterocyclic chalcone derivatives” (Med Chem Res, 2013).
Calls of active or inactive are those of the source. The calls are words filed in the database; no cut-off is given here.

Columns and labels:
HL-60 = assay: Cytotoxicity against Homo sapiens (human) HL60 cells assessed as growth inhibition after 48 hr by MTT assay; format: functional, cell-based; settings: HL-60, 48 h
Staphylococcus aureus [1] = assay: Antibacterial activity against Staphylococcus aureus 1199B overexpressing NorA assessed as reduction of ciprofloxacin MIC at MEC after 18 hr by broth checkerboard method relative to control; format: functional
Staphylococcus aureus [2] = assay: Antibacterial activity against Staphylococcus aureus 1199B overexpressing NorA assessed as growth inhibition after 18 hr by broth checkerboard method; format: functional; settings: read-out: MEC
[3] = tested on: Radical scavenging activity; assay: Antioxidant activity assessed as DPPH radical scavenging activity after 20 min by microplate ELISA reader analysis; format: functional
Rattus norvegicus = assay: Anti-inflammatory activity in Wistar Rattus norvegicus (rat) assessed as inhibition of carrageenan-induced paw edema at 100 mg/kg, po administered 45 min prior to carrageenan-challenge measured 45 min to 4 hr post carrageenan-challenge relative to control; format: functional
HeLa = assay: Cytotoxicity against Homo sapiens (human) HeLa cells assessed as growth inhibition after 48 hr by MTT assay; format: functional, cell-based
MOLT-4 = assay: Cytotoxicity against Homo sapiens (human) MOLT4 cells assessed as growth inhibition after 48 hr by MTT assay; format: functional, cell-based; settings: MOLT-4, 48 h
PC-3 = assay: Cytotoxicity against Homo sapiens (human) PC3 cells assessed as growth inhibition after 48 hr by MTT assay; format: functional, cell-based; settings: PC-3, 48 h

| Compound | IC50 (HL-60) [µM] | fold change (FC) (Staphylococcus aureus [1]) | minimal effective concentration (Staphylococcus aureus [2]) [µg/mL] | Activity [3] | inhibition (Rattus norvegicus) | IC50 (HeLa) [µM] | IC50 (MOLT-4) [µM] | IC50 (PC-3) [µM] | inhibition in vivo at 100 mg/kg (Rattus norvegicus) [%] |
| --- | --- | --- | --- | --- | --- | --- | --- | --- | --- |
| CN(C)c1ccc(/C=C/C(=O)c2ccco2)cc1 | 12 | 4 | 12.5 | inactive | inactive | 20 | 12 | 13 | – |
| O=C(/C=C/c1ccc(Br)cc1)c1ccco1 | 48 | 2 | 25 | inactive | inactive | > 100 | 62 | 58 | – |
| O=C(/C=C/c1ccc(Cl)cc1)c1ccco1 | 19 | 0 | > 50 | inactive | inactive | 38 | 23 | 29 | – |
| O=C(/C=C/c1ccc(Br)cc1)c1ccc[nH]1 | 32 | 0 | > 50 | inactive | inactive | > 100 | 49 | 44 | – |
| O=C(/C=C/c1cccc(Cl)c1Cl)c1ccc[nH]1 | – | 0 | > 50 | inactive | inactive | – | – | – | – |
| O=C(/C=C/c1ccccc1)c1ccc[nH]1 | > 100 | 0 | > 50 | inactive | inactive | > 100 | > 100 | > 100 | – |
| O=C(/C=C/c1ccc2c(c1)OCO2)c1ccc[nH]1 | – | 0 | > 50 | inactive | inactive | – | – | – | – |
| O=C(/C=C/c1ccc([N+](=O)[O-])cc1)c1ccco1 | – | 0 | > 50 | inactive | inactive | – | – | – | – |
| O=C(/C=C/c1cccc([N+](=O)[O-])c1)c1ccco1 | 14 | 0 | > 50 | inactive | inactive | 22 | 18 | 14 | – |
| O=C(/C=C/c1ccccc1Cl)c1ccco1 | 12 | 0 | > 50 | inactive | inactive | 26 | 25 | 14 | – |
| COc1ccc(/C=C/C(=O)c2ccc[nH]2)c(OC)c1 | – | 2 | 25 | inactive | inactive | – | – | – | – |
| COc1ccc(CCN(C)CCCC(C#N)(c2ccc(OC)c(OC)c2)C(C)C)cc1OC (configuration not stated) [VERAPAMIL] | – | 2 | 50 | – | – | – | – | – | – |
| O=C(/C=C/c1cc([N+](=O)[O-])ccc1Cl)c1ccco1 | 58 | 0 | > 50 | inactive | inactive | > 100 | 72 | 62 | – |
| COc1ccc(/C=C/C(=O)c2ccco2)cc1OC | – | 0 | > 50 | inactive | – | – | – | – | 23 |
| COC(=O)[C@H]1[C@H]2C[C@@H]3c4[nH]c5cc(OC)ccc5c4CCN3C[C@H]2C[C@@H](OC(=O)c2cc(OC)c(OC)c(OC)c2)[C@@H]1OC [RESERPINE] | – | 0 | 25 | – | – | – | – | – | – |
| O=C(/C=C/c1ccc([N+](=O)[O-])cc1)c1ccc[nH]1 | 14 | 0 | > 50 | inactive | inactive | 26 | 15 | 13 | – |
| O=C(/C=C/c1ccc2c(c1)OCO2)c1ccco1 | – | 0 | > 50 | inactive | inactive | – | – | – | – |
| O=C(/C=C/c1ccc(Cl)cc1)c1ccc[nH]1 | 13 | 0 | > 50 | inactive | inactive | 25 | 22 | 18 | – |
| COc1cccc(/C=C/C(=O)c2ccco2)c1OC | – | 4 | 25 | inactive | inactive | – | – | – | – |

| Compound | IC50 (HL-60) [µM] | fold change (FC) (Staphylococcus aureus [1]) | minimal effective concentration (Staphylococcus aureus [2]) [µg/mL] | Activity [3] | inhibition (Rattus norvegicus) | IC50 (HeLa) [µM] | IC50 (MOLT-4) [µM] | IC50 (PC-3) [µM] | inhibition in vivo at 100 mg/kg (Rattus norvegicus) [%] |
| --- | --- | --- | --- | --- | --- | --- | --- | --- | --- |
| O=C(/C=C/c1ccccc1Br)c1ccco1 | – | 0 | > 50 | inactive | inactive | – | – | – | – |
| COc1cccc(OC)c1/C=C/C(=O)c1ccc[nH]1 | – | 0 | > 50 | inactive | inactive | – | – | – | – |
| O=C(/C=C/c1cc([N+](=O)[O-])ccc1Cl)c1ccc[nH]1 | 38 | 0 | > 50 | inactive | inactive | 68 | 42 | 55 | – |
| O=C(/C=C/c1cccc([N+](=O)[O-])c1)c1ccc[nH]1 | 20 | 0 | > 50 | inactive | inactive | 32 | 22 | 23 | – |
| O=C(/C=C/c1ccccc1Br)c1ccc[nH]1 | 42 | 4 | 25 | inactive | inactive | 44 | 38 | 44 | – |
| O=C(/C=C/c1ccccc1)c1ccco1 | 100 | 0 | > 50 | inactive | inactive | > 100 | > 100 | > 100 | – |
| COc1ccc(OC)c(/C=C/C(=O)c2ccco2)c1 | – | 0 | > 50 | inactive | inactive | – | – | – | – |
| CN(C)c1ccc(/C=C/C(=O)c2ccc[nH]2)cc1 | – | 0 | > 50 | inactive | inactive | – | – | – | – |
| O=C(/C=C/c1ccccc1Cl)c1ccc[nH]1 | – | 4 | 25 | inactive | inactive | – | – | – | – |
| COc1cc(/C=C/C(=O)c2ccco2)cc(OC)c1OC | – | 0 | > 50 | inactive | inactive | – | – | – | – |
| COc1cccc(/C=C/C(=O)c2ccc[nH]2)c1OC | – | 4 | 25 | inactive | inactive | – | – | – | – |
| COc1ccc(/C=C/C(=O)c2ccc[nH]2)cc1OC | – | 0 | > 50 | inactive | inactive | – | – | – | – |
| O=C(/C=C/c1ccc(F)cc1)c1ccc[nH]1 | – | 2 | 25 | inactive | inactive | – | – | – | – |
| COc1cccc(/C=C/C(=O)c2ccc[nH]2)c1 | 16 | 0 | > 50 | inactive | inactive | 30 | 28 | 24 | – |
| O=C(/C=C/c1ccc(Cl)cc1Cl)c1ccc[nH]1 | 22 | 0 | > 50 | inactive | inactive | 26 | 13 | 22 | – |
| COc1ccc(/C=C/C(=O)c2ccc[nH]2)cc1 | – | 2 | 25 | inactive | inactive | – | – | – | – |
| O=C(/C=C/c1ccc(F)cc1)c1ccco1 | – | 0 | > 50 | inactive | inactive | – | – | – | – |
| COc1ccc(/C=C/C(=O)c2ccco2)cc1 | – | 0 | > 50 | inactive | inactive | – | – | – | – |
| O=C(/C=C/c1c(Cl)cccc1Cl)c1ccc[nH]1 | – | 0 | > 50 | inactive | inactive | – | – | – | – |
